Data set [1] can be described thus: Toxic concentration against HIV-1 IIIB in C8166 T-cells. The following applies: human, read-out: TC50 (the source's name). It counts as ADME, cell-based.
The test system of data set [2] is C8166. In words: Ability to inhibit the replication of HIV-1 IIIB infected C8166 cells. It counts as functional, cell-based. The conditions noted are these: Homo sapiens.

pEC50: −log10 of the molar value.

Take `Cc1cn(C2C=CC(COP(=O)(OCC(F)(F)F)OCC(F)(F)F)O2)c(=O)[nH]c1=O` (centres undefined): in data set [1], the CC50 was 500 µM. The same compound gave a pEC50 in data set [2] of 4.82.

As for `CCCOP(=O)(OCCC)OCC1C=CC(n2cc(C)c(=O)[nH]c2=O)O1` (centres undefined), the CC50 in data set [1] is 200 µM. In addition, the pEC50 in data set [2] was less than 3.70.

For `CCCOP(=O)(OCC1C=CC(n2cc(C)c(=O)[nH]c2=O)O1)OCC(Cl)(Cl)Cl` (centres undefined), in data set [1], the CC50 stood at 500 µM. This compound gave a pEC50 in data set [2] of 4.70.

With `Cc1cn([C@H]2C=C[C@@H](CO)O2)c(=O)[nH]c1=O` [STAVUDINE], the CC50 in data set [1] is 50 µM. In addition, in data set [2], the pEC50 was 7.10.

`Cc1cn(C2C=CC(COP(=O)(OCC(Cl)(Cl)Cl)OCC(Cl)(Cl)Cl)O2)c(=O)[nH]c1=O` (centres undefined): the CC50 in data set [1] is 150 µM. In data set [2], this compound had a pEC50 of 6.40.

As for `COC(=O)C(C)NP(=O)(OCC1C=CC(n2cc(C)c(=O)[nH]c2=O)O1)OCC(Cl)(Cl)Cl` (centres undefined), the CC50 in data set [1] was determined as 500 µM. Further, the pEC50 in data set [2] was 6.70.

As to `CCCOP(=O)(NC(C)C(=O)OC)OCC1C=CC(n2cc(C)c(=O)[nH]c2=O)O1` (centres undefined), the CC50 in data set [1] was found to be 250 µM. For the same compound, in data set [2], the pEC50 is 3.70.

The term pEC50 denotes the negative decadic logarithm of the EC50, by convention in mol/L.

The values are drawn from ChEMBL document CHEMBL1150525, “Phosphate derivatives of d4T as inhibitors of HIV” (Bioorg Med Chem Lett, 1993).
